Laboratory results published in ChEMBL document CHEMBL1201862, “PubChem BioAssay data set” (2004).
Calls of active or inactive are those of the source.

Columns and labels:
[1] = biological target: T1, Estrogen receptor (Homo sapiens, UniProt P03372); test: ERα–SRC-3 coactivator interaction inhibitors, confirmation, orthogonal assay, biochemical, ELISA, streptavidin-HRP readout (AID 1079)
T1 sequence (P03372 whole entry): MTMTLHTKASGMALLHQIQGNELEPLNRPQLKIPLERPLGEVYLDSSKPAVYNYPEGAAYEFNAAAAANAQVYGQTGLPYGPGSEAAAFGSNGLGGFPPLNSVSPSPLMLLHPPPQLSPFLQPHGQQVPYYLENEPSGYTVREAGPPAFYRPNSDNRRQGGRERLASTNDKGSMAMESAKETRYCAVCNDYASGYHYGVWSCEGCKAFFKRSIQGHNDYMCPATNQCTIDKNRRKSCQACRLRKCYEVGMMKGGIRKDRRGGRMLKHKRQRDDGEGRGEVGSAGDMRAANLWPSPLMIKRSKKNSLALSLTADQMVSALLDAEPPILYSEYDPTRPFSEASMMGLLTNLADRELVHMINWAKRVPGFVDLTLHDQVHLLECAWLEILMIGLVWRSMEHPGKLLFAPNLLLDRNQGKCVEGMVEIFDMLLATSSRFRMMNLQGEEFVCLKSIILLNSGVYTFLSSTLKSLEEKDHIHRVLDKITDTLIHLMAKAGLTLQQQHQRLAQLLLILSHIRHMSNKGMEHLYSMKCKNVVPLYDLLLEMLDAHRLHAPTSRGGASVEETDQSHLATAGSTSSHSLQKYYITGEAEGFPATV

[2] = biological target: Photoreceptor-specific nuclear receptor (Homo sapiens, UniProt Q9Y5X4); format: functional;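 further: potency for compounds that break the NR2E3 corepressor complex and count as activators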
[3] = biological target: Peroxisome proliferator-activated receptor gamma/Nuclear receptor corepressor 2 (Homo sapiens, UniProt P37231+Q9Y618); format: functional
[4] = biological target: Chaperone protein dnaK (Escherichia coli, UniProt C3TRK2); test: DnaK beta-domain binding affinity, SAR follow-up, orthogonal assay for DnaK modulator project, biophysical, isothermal titration calorimetry, full-length DnaK (AID 1495)
[5] = A cytotoxicity screen of small molecule inhibitors of the PhoP region in Salmonella typhi identified in the primary screen. [Related pubchem assays: 1850, 1864, 1985 ]; format: functional
[6] = biological target: NS3 (Hepatitis C virus, UniProt A3EZJ3); test: PubChem AID 2173; parameters: species or system Hepacivirus hominis
[7] = biological target: Heat shock protein HSP 90-alpha (Homo sapiens, UniProt P07900); format: functional, organism-based
[8] = microbe, parasite or virus in culture; format: functional; conditions: Mycobacterium tuberculosis
[9] = cytotoxicity in HEK-293T cells, dose response, cytotoxicity control for TCR NF-kB inhibitor project, luminescence, T-cell screen hits (AID 489026); format: functional, cell-based;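 further: cells exposed to compound about 14 hours before the viability readout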
[10] = luciferase reporter signal reduction – luminescence, H4-C neuroglioblastoma cells, dose response (AID 2458); format: functional, cell-based;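 further: H4 neuroglioblastoma cells stably carrying a luciferase reporter gene fusion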
[11] = cells; format: functional, cell-based
[12] = inhibitors of SNCA 5'UTR-driven translation, confirmation, luminescence, H4 neuroglioblastoma cells, dose confirmation (AID 2454); format: functional, cell-based;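 further: H4 neuroglioblastoma cells carrying an alpha-synuclein 5'UTR luciferase reporter; potency for inhibition of the luciferase signal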
[13] = tested on: Streptococcus; test: Group A Streptococcus viability loss, dose response, counter-screen for streptokinase expression inhibitor project, luminescence, BacTiterGlo (AID 1915); format: functional, organism-based;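 further: potency for reduction of bacterial viability or growth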
[14] = Vero E6 cell cytotoxicity, dose response, cytotoxicity control for non-replicating M. tuberculosis project, secondary assay (AID 492998); format: functional, VeroE6; conditions: Vero C1008
[15] = THP-1 cell cytotoxicity, dose response, cytotoxicity control for non-replicating M. tuberculosis project (AID 489025); format: functional
[16] = tested on: INS1; test: beta cell apoptosis inhibitors, cytokine rescue, dose response, luminescence, retest (AID 449756); format: functional, cell-based; conditions: Rattus norvegicus;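 further: cell death triggered by IL-1 beta plus TNF-alpha plus IFN-gamma mixture; protective hits raise ATP signal compared with cytokine alone wells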
[17] = cells; format: functional
[18] = biological target: T2, Streptokinase A (Streptococcus pyogenes serotype M1, UniProt P10520); test: S. pyogenes streptokinase expression inhibitors, potency, dose response, plasminogen activation absorbance, OD405 (AID 1914); format: functional, Streptococcus pyogenes M1 GAS;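 further: secreted streptokinase activity via plasminogen activation per viability signal from cell pellet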
T2 sequence (P10520 whole entry): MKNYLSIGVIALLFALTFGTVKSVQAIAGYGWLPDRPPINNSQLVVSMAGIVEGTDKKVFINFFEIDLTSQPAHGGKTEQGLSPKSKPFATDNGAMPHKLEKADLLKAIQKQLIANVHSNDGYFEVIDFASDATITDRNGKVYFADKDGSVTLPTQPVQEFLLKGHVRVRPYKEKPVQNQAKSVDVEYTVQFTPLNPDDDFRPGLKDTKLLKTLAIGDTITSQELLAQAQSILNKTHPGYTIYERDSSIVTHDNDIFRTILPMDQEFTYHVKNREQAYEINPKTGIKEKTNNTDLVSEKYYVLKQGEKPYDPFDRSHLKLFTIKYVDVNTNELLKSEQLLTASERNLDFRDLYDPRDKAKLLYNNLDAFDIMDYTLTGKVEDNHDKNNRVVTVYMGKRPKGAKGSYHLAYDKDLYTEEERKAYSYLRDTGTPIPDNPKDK

[19] = tested on: Streptococcus sp. 'group A'; test: growth inhibition of control SK(-) GAS strain, dose response, counter-screen for streptokinase expression inhibitor project, luminescence, kanamycin, BacTiterGlo, confirmation (AID 1900); format: functional, organism-based
[20] = inhibitors of SNCA 5'UTR-driven reporter translation, confirmation, H4 neuroglioma cells, luminescence (AID 1988); format: functional, cell-based

Chain of Photoreceptor-specific nuclear receptor (Q9Y5X4 whole entry): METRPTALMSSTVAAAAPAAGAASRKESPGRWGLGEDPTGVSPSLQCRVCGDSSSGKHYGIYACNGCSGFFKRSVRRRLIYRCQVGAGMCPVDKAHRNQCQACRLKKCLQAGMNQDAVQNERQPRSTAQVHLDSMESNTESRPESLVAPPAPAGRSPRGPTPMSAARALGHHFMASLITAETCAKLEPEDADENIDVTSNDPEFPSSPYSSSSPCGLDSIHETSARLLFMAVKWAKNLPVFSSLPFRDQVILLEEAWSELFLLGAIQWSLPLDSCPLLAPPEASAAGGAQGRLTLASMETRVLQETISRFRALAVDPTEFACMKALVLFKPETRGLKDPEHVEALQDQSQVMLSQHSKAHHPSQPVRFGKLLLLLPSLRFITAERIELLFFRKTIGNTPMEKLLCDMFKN
Chain of NS3 (A3EZJ3 whole entry): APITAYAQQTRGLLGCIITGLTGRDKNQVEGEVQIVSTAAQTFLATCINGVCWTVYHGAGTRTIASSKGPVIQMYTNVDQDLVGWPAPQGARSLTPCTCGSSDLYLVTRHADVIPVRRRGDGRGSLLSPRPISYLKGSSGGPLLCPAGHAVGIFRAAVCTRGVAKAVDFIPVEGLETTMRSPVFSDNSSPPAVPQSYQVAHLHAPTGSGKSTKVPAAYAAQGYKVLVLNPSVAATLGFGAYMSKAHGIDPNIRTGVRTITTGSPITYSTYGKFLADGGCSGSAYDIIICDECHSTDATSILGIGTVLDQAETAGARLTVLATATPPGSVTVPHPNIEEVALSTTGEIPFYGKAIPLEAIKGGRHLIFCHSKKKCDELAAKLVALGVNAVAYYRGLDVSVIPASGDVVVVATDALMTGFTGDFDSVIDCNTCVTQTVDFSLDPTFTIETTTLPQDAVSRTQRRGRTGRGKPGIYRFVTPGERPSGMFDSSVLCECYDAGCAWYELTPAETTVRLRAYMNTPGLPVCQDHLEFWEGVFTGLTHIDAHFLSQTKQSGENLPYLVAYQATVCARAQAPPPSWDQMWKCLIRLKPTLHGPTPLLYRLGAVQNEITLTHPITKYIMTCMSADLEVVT
Chain of Chaperone protein dnaK (C3TRK2 whole entry): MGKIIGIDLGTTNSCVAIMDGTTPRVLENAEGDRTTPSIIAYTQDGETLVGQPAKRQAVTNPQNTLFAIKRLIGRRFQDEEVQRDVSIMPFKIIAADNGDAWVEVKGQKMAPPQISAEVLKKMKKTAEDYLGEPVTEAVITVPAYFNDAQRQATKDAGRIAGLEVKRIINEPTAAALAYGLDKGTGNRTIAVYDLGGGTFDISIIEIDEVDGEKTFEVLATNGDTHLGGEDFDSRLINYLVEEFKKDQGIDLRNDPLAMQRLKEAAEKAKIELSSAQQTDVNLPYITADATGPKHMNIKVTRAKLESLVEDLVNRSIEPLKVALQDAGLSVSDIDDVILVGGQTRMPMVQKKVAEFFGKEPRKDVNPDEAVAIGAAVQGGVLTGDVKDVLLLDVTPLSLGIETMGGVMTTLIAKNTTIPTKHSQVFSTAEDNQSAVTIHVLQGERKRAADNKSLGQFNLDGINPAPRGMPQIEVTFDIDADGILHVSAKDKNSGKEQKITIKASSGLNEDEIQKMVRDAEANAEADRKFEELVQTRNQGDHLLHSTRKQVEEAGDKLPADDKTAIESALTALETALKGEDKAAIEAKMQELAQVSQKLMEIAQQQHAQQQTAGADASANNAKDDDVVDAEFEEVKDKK
Chain of Peroxisome proliferator-activated receptor gamma/Nuclear receptor corepressor 2 (P37231 whole entry): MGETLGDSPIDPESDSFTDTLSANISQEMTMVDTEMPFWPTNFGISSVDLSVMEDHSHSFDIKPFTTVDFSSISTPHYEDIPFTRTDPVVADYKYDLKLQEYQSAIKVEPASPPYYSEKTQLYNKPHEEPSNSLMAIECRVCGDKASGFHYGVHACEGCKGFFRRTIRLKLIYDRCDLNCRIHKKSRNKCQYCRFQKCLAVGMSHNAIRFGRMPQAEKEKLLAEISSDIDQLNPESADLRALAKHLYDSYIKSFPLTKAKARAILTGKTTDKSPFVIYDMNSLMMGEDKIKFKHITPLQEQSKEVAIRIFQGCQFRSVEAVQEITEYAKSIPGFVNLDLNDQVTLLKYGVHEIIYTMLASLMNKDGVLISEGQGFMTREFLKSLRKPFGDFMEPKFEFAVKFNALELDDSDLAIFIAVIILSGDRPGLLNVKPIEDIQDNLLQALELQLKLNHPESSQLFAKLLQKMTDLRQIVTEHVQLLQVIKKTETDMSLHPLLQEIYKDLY
Chain of Peroxisome proliferator-activated receptor gamma/Nuclear receptor corepressor 2 (Q9Y618 whole entry): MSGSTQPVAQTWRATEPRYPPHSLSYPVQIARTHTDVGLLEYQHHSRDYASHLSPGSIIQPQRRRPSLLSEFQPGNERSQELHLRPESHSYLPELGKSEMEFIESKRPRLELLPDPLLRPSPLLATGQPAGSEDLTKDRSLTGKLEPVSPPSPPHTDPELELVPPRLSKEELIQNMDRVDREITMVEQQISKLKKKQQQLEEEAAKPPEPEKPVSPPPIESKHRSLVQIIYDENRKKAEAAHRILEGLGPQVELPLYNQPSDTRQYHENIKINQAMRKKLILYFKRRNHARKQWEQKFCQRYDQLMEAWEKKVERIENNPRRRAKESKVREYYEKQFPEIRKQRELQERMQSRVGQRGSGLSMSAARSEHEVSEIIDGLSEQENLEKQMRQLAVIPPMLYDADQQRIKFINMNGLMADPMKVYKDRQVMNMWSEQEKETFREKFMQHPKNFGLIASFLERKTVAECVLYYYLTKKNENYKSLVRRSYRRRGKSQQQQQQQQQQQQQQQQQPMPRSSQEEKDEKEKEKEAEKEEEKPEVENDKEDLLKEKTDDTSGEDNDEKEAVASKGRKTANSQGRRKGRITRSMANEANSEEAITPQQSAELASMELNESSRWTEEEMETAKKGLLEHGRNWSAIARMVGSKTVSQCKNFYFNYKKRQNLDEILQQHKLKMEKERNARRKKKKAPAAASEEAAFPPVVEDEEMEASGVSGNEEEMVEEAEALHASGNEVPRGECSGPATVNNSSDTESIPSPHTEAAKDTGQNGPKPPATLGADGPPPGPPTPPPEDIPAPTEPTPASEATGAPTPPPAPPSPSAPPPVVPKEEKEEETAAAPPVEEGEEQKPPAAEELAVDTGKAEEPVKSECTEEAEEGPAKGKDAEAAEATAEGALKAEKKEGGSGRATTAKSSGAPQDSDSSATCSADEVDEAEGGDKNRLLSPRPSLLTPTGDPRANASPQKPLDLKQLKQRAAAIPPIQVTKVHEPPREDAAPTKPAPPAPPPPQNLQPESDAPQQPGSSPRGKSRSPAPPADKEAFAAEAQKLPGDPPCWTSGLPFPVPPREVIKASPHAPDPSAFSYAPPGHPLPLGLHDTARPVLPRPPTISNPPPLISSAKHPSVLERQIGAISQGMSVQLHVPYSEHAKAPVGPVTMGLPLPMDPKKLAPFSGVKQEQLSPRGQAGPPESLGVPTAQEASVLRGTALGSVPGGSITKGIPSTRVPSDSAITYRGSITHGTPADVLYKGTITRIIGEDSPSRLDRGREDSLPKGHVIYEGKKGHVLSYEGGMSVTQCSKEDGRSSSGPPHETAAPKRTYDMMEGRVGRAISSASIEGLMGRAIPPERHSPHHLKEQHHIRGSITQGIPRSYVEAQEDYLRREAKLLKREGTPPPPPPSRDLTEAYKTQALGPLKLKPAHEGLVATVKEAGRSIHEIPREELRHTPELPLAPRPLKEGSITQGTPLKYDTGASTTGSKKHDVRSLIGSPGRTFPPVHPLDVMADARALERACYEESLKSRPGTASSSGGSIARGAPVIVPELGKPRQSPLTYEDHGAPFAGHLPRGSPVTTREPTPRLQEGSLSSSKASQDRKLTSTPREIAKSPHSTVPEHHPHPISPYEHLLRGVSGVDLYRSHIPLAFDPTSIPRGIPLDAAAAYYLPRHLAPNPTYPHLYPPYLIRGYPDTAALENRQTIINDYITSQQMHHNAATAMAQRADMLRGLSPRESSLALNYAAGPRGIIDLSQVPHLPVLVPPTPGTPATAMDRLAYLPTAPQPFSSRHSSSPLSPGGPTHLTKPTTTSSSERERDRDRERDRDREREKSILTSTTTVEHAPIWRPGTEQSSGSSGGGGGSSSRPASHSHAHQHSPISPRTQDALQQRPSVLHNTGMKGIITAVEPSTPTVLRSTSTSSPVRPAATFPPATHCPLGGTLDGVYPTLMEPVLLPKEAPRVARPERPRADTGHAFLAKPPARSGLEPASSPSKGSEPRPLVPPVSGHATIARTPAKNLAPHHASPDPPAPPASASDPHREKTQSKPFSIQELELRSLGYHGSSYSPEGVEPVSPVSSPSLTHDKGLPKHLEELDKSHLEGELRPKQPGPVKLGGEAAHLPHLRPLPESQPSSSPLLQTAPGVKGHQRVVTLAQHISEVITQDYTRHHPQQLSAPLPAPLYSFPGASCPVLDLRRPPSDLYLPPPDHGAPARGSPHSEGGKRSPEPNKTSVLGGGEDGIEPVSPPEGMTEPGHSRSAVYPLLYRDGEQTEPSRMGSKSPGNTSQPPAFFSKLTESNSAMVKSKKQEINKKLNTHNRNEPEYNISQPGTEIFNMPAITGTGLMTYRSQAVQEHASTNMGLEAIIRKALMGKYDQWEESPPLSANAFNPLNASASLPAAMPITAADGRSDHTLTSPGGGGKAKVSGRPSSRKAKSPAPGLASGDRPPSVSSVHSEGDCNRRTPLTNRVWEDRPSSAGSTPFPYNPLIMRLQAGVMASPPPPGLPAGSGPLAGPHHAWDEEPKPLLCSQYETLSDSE

O=C(CCCn1c(=S)[nH]c2ccccc2c1=O)N1CCN(c2ccc(Cl)cc2)CC1
IC50 [1]: 19.8 µM (not active)

O=C(O)c1cc(-c2ccco2)nc2ccc(Br)cc12
IC50 [2]: > 39.8 µM (not active)
IC50 [3]: 1.58 µM (active)

O=C(c1cccs1)N1CCN(CCO)CC1
Kd [4]: 16.7 µM (inactive)

Cc1ccsc1/C=N\NC(=O)c1ccc2c(c1)OCO2
EC50 [5]: > 50 µM (active)

O=C(N/N=C/c1cc(Cl)c(O)c(Cl)c1)c1cc2c(ccc3ccccc32)o1
IC50 [6]: 4.26 µM (active)
AC50 [7]: 4.54 µM (active)

CCOc1ccc(Nc2cc(C)nc(-n3nc(C)cc3C)n2)cc1
CC50 [8]: 6.26 µM (active)
IC50 [9]: > 80 µM (inactive)
EC50 [10]: 0.588 µM (active)
EC50 [11]: 0.969 µM (active)
EC50 [12]: 0.88 µM (active)
EC50 [13]: > 150 µM (not active)
CC50 [14]: 1.14 µM (active)
CC50 [15]: 0.357 µM (active)
AC50 [16]: 2.55 µM (active)
IC50 [17]: 0.56 µM (active)
EC50 [18]: > 150 µM (not active)
EC50 [19]: 7.01 µM (active)
EC50 [20]: < 0.1 µM (active)
